This data set has as its system CDI iCell cardiomyocytes. The following applies: geometric mean of the MEC values for beat period, Na+ slope, Na+ amplitude, field duration.

Consider `CCNC(=N)NC(=O)Nc1c(CC)cc(NS(=O)(=O)c2ccccc2)cc1CC` [5n, N-(3,5-Diethyl-4-(3-(N-ethylcarbamimidoyl)ureido)phenyl)benzenesulfonamide], for which the “MEC Gmean cardiomyocytes” value worked out at 8.9 µM.
